The target in one test is T1, human A3AR (Homo sapiens, UniProt P0DMS8).
T1 construct: host or cells: CHO-K1 (CHO-ADORA3)
T1 sequence (P0DMS8 1-318): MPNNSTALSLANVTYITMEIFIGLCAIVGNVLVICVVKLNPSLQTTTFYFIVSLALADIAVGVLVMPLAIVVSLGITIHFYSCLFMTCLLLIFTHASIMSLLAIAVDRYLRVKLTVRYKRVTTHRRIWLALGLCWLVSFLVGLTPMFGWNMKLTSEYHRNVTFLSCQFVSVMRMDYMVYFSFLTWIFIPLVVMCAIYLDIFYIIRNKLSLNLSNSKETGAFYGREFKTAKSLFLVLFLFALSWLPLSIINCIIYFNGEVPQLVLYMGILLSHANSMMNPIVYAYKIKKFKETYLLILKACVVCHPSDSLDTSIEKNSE
Description: A3AR cell-based functional assay (A3AR-mediated cAMP production, CHO-ADORA3 cells). The settings on record: for IC50: target A3AR, cAMP level of ADORA3-CHO cells elicited by NECA. Here is the method: (§1) Pharmaron (Beijing) was commissioned to perform in vitro inhibition screening of hGR and A3AR.
The four test compounds were evaluated as A3AR antagonists by A3AR-mediated cAMP production in cell-based functional assays. CHO-ADORA3 cells in which the A3AR was transfected in engineered CHO-K1 cells (PerkinElmer) to express the human A3AR were employed. The cells were collected by centrifugation and resuspended with Hank’s Buffered Saline Solution, 5 mM 4-(2-hydroxyethyl)-1-piperazineethanesulfonic acid (HEPES), 0.1% bovine serum albumin (BSA) stabilizer (pH 7.4) and 10 μM Rolipram. 2000 cells per well were added to 384 wells solid white plate. Test compounds were prepared with DMSO in 3-fold serial dilutions of 11 concentrations and dispensed to assay plates. Each compound was tested within the range of 1.69 × 10^-3–100 μM. The serial dilutions of adenosine-5′-N-ethyluronamide (NECA, 10 nl/well) was transferred to 384 wells and incubated at room temperature for 30 min. A LANCE cAMP 384 kit (Perkin Elmer, USA) was used to measure the intracellular cAMP levels. Forskolin (1 μM) was used to stimulate adenylyl cyclase activity and induce cAMP production. NECA and VUF-5574 were used as reference compounds.
Background: cAMP levels reflect the balance of adenylyl cyclase and phosphodiesterase activity.

Test [1] addresses T2, human glucocorticoid receptor (hGR) (Homo sapiens, UniProt P04150).
T2 construct: expressed in transfected cells; host or cells: HEK293T
T2 sequence (P04150 524-758 limits assumed): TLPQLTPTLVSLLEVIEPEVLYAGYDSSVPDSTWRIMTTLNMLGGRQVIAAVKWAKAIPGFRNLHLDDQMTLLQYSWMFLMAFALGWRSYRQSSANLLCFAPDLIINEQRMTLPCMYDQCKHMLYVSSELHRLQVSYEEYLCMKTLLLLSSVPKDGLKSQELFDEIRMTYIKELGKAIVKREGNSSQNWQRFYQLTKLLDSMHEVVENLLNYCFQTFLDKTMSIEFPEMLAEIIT
Nature of the test: hGR reporter gene assay (GR-GAL4 chimeric receptor, antagonist mode). It is filed as cell-based.
Excerpt: as §1
The coding sequence of hGR ligand-binding domain was inserted into the pBIND expression vector (Promega, E1581) to express GR-GAL4 binding domain chimeric receptors. The expression vector and reporter vector were co-transfected into HEK293T host cells. The principle of the assay is that once the agonist binds to the corresponding GR-GAL4 chimeric receptor, the reporter gene is activated after binding of the chimeric receptor to the GAL4 binding sites. When the antagonist and agonist are in the system, the antagonist will compete with the agonist for binding to the GR-GAL4 chimeric receptor, inhibiting the reporter gene. Cyproterone was used as a positive control. All six test compounds were prepared in dimethyl sulfoxide (DMSO) at 10 mM and further diluted. Each compound was added to wells at final concentrations of 100 μM, 50 μM, 16.67 μM, 5.56 μM, 1.85 μM, 0.62 μM, 0.21 μM, 0.07 μM, 0.02 μM, 0.008 μM and 0.003 μM.
Background: In a reporter assay the amount or activity of a reporter protein is the signal.

Where [2] appears, read: read-out: IC50 (half-maximal inhibitory concentration).
Where [3] appears, read: target GR, GR-GAL4 reporter gene assay in HEK293T cells, read-out: IC50 (half-maximal inhibitory concentration).

Read-outs that look alike come from different tables or passages of the source.

`CC(=O)Nc1ccc(S(=O)(=O)Nc2cc(C(F)(F)F)cc(C(F)(F)F)c2)cc1` [A3-1]: the IC50 at human A3AR (setting [2]) was > 10 µM.
On the same count and under the same terms, with `NC(=O)c1nnc2cc(-c3ccccc3)nn2c1-c1ccccc1Cl` [A3-2] the figure was > 10 µM.
For `O/N=C/c1cn(-c2ccccc2)nc1-c1ccccc1` [A3-3], the LE value on human A3AR (ligand efficiency based on IC50, 20 heavy atoms) worked out at 0.36 kcal/mol. Further, the IC50 at human A3AR (setting [2]) is 6.15 µM.
Turning to `CC1(O)CCC2C3CCC4=CC(=O)CCC4C3CCC21C` (centres unmarked) [A3-4], the IC50 against human A3AR (IC50 (half-maximal inhibitory concentration)) was > 10 µM.
Take `CC(=O)OC1CCC2(C)C(=CCC3C2CCC2(C)C(OC(=O)c4ccccc4)CCC32)C1` (centres unmarked) [GR-1]: the IC50 in test [1] is 28.4 µM.
Take `C#CC1(O)CCC2C3CCc4cc(Oc5ccc([N+](=O)[O-])cc5)ccc4C3CCC21C` (centres unmarked) [GR-2]: in test [1] (setting [3]), the IC50 was determined as 2.92 µM.
Consider `CC(=O)C1(O)CCC2C3CCC4(C)CC(=O)CCC4(C)C3C(=O)CC21C` (centres unmarked) [GR-3], for which, in test [1] (setting [3]), the IC50 came to 27 µM.
With `Cc1nnc(SCC(=O)Nc2ccc(S(N)(=O)=O)cc2)c2nn(-c3ccccc3)c(C)c12` [GR-4], in test [1] (setting [3]), the IC50 was determined as 23.5 µM.
Still for that read-out and setting: then `O=S(=O)(Nc1cccc(-c2nc3ccccc3s2)c1)c1ccc(F)c(Cl)c1` [GR-5], with 18 µM; and `CC(=O)OCC(=O)C1(OC(C)=O)CCC2C3CCC4=CC(=O)C=CC4(C)C3C(=O)CC21C` (centres unmarked) [GR-6], with 8.6 µM.
